Drawing on patent US7759337B2, “Phthalazine compounds and methods of use” (Amgen Inc., priority 2005, dated 2010), this text covers IC50 for 32 molecules.

Bounds are passed on as bounds.

As usually defined, the IC50 is the concentration that gives 50% inhibition. High values mean a need for much substance, low ones inhibition by little substance.

The test system of the assay is production of TNF by monocytes activated with bacterial lipopolysaccharide (LPS). As to the kind of experiment: Lipopolysaccharide-activated monocyte TNF production assay. Type of assay: cell-based. The conditions noted are these: Homo sapiens; whole blood monocyte assay (LPS induced TNF release). On the procedure:
Test compounds were evaluated in vitro for the ability to inhibit the production of TNF by monocytes activated with bacterial lipopolysaccharide (LPS). Fresh residual source leukocytes (a byproduct of plateletpheresis) were obtained from a local blood bank, and peripheral blood mononuclear cells (PBMCs) were isolated by density gradient centrifugation on Ficol-Paque Plus (Pharmacia). PBMCs were suspended at 2×10^6/mL in DMEM supplemented to contain 2% FCS, 10 mM, 0.3 mg/mL […], 100 U/mL penicillin G and […] streptomycin sulfate (complete media). Cells were plated into Falcon flat bottom, 96 well culture plates (200 μL/well) and cultured overnight at 37° C. and 6% CO2. Non-adherent cells were removed by washing with 200 μl/well of fresh medium.
Test compounds were dissolved in […]. Compound stock solutions were prepared to an initial concentration of […]. Stocks were diluted initially to 20-200 μM in complete media. Nine two-fold serial dilutions of each compound were then prepared in complete medium.
One hundred microliters of each test compound dilution were added to microtiter wells containing adherent monocytes and 100 μL complete medium. Monocytes were cultured with test compounds for 60 min at which time 25 μL of complete medium containing 30 ng/mL lipopolysaccharide from E. coli K532 were added to each well. Cells were cultured an additional 4 hrs. Culture supernatants were then removed and TNF presence in the supernatants was quantified using an ELISA.
Flat bottom, 96 well Corning High Binding ELISA plates were coated overnight (4° C.) with 150 μL/well of 3 μg/mL murine anti-human TNF-α MAb (R&D Systems #MAB210). Wells were then blocked for 1 h at room temperature with 200 μL/well of CaCl2-free ELISA buffer supplemented to contain 20 mg/mL BSA (standard ELISA buffer: […], 150 mM NaCl, 2 mM CaCl2, 0.15 mM thimerosal, pH 7.4). Plates were washed and replenished with 100 μL of test supernatants (diluted 1:3) or standards. Standards consisted of eleven 1.5-fold serial dilutions from a stock of I ng/mL recombinant human TNF (R&D Systems). Plates were incubated at room temperature for 1 h on orbital shaker (300 rpm), washed and replenished with 100 μL/well of 0.5 μg/mL goat anti-human TNF-α (R&D systems #AB-210-NA) biotinylated at a 4:1 ratio. Plates were incubated for 40 min, washed and replenished with 100 μL/well of alkaline phosphatase-conjugated streptavidin (Jackson ImmunoResearch #016-050-084) at 0.02 μg/mL. Plates were incubated 30 min, washed and replenished with 200 μL/well of 1 mg/mL of p-nitrophenyl phosphate. After 30 min, plates were read at 405 nm on a Vmax plate reader.
Standard curve data were fit to a second order polynomial and unknown TNF-α concentrations determined from their OD by solving this equation for concentration. TNF concentrations were then plotted vs. test compound concentration using a second order polynomial. This equation was then used to calculate the concentration of test compounds causing a 50% reduction in TNF production.
Consider `Cc1ccc(C(=O)NC2CC2)cc1-c1ccc2c(N3CCNC(=O)[C@@H]3C)nncc2c1` [Example 271, N-cyclopropyl-4-methyl-3-{1-[(2S)-2-methyl-3-oxopiperazin-1-yl]phthalazin-6-yl}benzamide], for which the IC50 was ≤ 5 µM. Then `Cc1ccc(C(=O)NC2CC2)cc1-c1ccc2c(NC[C@H]3CCCO3)nncc2c1` [Example 297, N-cyclopropyl-4-methyl-3-(1-{[(2R)-tetrahydrofuran-2-ylmethyl]amino}phthalazin-6-yl)benzamide], with ≤ 5 µM; and `Cc1ccc(C(N)=O)cc1-c1ccc2c(-c3ccccc3C)nncc2c1` [Example 176, 4-methyl-3-[1-(2-methylphenyl)phthalazin-6-yl]benzamide], with ≤ 5 µM. Then `CCc1ccccc1-c1nncc2cc(-c3cc(C(=O)NC4CC4)ccc3C)ccc12` [Example 251, N-cyclopropyl-3-[1-(2-ethylphenyl)phthalazin-6-yl]-4-methylbenzamide], with ≤ 5 µM; and `Cc1ccc(C(N)=O)cc1-c1ccc2c(Oc3ccc(F)cc3F)nncc2c1` [Example 304, 3-[1-(2,4-difluorophenoxy)phthalazin-6-yl]-4-methylbenzamide], with ≤ 5 µM; and `Cc1ccc(C(N)=O)cc1-c1ccc2c(N3CCN4CCC[C@H]4C3)nncc2c1` [Example 282, 3-{1-[(8aS)-hexahydropyrrolo[1,2-a]pyrazin-2(1H)-yl]phthalazin-6-yl}-4-methylbenzamide], with ≤ 5 µM. As for `COc1ccc(-c2nncc3cc(-c4cc(C(=O)NC5CC5)ccc4C)ccc23)c(C(F)(F)F)c1` [Example 258, N-cyclopropyl-3-{1-[4-methoxy-2-(trifluoromethyl)phenyl]phthalazin-6-yl}-4-methylbenzamide], the figure is ≤ 5 µM; as for `C[C@H]1COCCN1c1nncc2cc(-c3c(Cl)ccc4c(NC5CC5)noc34)ccc12` [Example 401, 6-chloro-N-cyclopropyl-7-{1-[(3S)-3-methylmorpholin-4-yl]phthalazin-6-yl}-1,2-benzisoxazol-3-amine], ≤ 5 µM. Regarding `Cc1cc(F)ccc1Oc1nncc2cc(-c3cc(C(=O)NC4CC4)ccc3C)ccc12` [Example 305, N-cyclopropyl-3-[1-(4-fluoro-2-methylphenoxy)phthalazin-6-yl]-4-methylbenzamide], the concentration for half-maximal inhibition (IC50) is ≤ 5 µM. Then `Cc1ccccc1Oc1nncc2cc(-c3c(C)ccc4c(NC5CC5)noc34)ccc12` [Example 318, N-cyclopropyl-6-methyl-7-[1-(2-methylphenoxy)phthalazin-6-yl]-1,2-benzisoxazol-3-amine], with ≤ 5 µM; and `Cc1cc(F)ccc1-c1nncc2cc(-c3c(C)ccc4c(NC5CC5)noc34)ccc12` [Example 377, N-cyclopropyl-7-[1-(4-fluoro-2-methylphenyl)phthalazin-6-yl]-6-methyl-1,2-benzisoxazol-3-amine], with ≤ 5 µM. Then `CNc1ccc(-c2nncc3cc(-c4cc(C(=O)NC5CC5)ccc4C)ccc23)c(OC)n1` [Example 206, N-cyclopropyl-3-{1-[2-methoxy-6-(methylamino)pyridin-3-yl]phthalazin-6-yl}-4-methylbenzamide], with ≤ 5 µM; and `COC[C@H](C)Nc1nncc2cc(-c3cc(C(=O)NC4CC4)ccc3C)ccc12` [Example 192, N-cyclopropyl-3-(1-{[(1S)-2-methoxy-1-methylethyl]amino}phthalazin-6-yl)-4-methylbenzamide], with ≤ 5 µM.

Take `CCOC(=O)c1ccc(C)c(-c2ccc3c(C(C)C)nncc3c2)c1` [Example 362, ethyl 3-(1-isopropylphthalazin-6-yl)-4-methylbenzoate]: the IC50 was ≤ 5 µM. As for `Cc1cc(F)ccc1-c1nncc2cc(-c3ccc(Cl)c4c(NC5CC5)noc34)ccc12` [Example 382, 4-chloro-N-cyclopropyl-7-[1-(4-fluoro-2-methylphenyl)phthalazin-6-yl]-1,2-benzisoxazol-3-amine], the figure is ≤ 5 µM; as for `CNc1noc2c(-c3ccc4c(N5CCOC[C@H]5C)nncc4c3)c(C)ccc12` [Example 373, N,6-dimethyl-7-{1-[(3R)-3-methylmorpholin-4-yl]phthalazin-6-yl}-1,2-benzisoxazol-3-amine], ≤ 5 µM; as for `O=C(O)Cc1ccc(-c2nncc3cc(Oc4ccc(F)cc4)ccc23)cc1` [Example 348, {4-[6-(4-fluorophenoxy)phthalazin-1-yl]phenyl}acetic acid], ≤ 5 µM. `Cc1ccc2c(NC3CC3)noc2c1-c1ccc2c(N3CCOCC3)nncc2c1` [Example 388, N-cyclopropyl-6-methyl-7-(1-morpholin-4-ylphthalazin-6-yl)-1,2-benzisoxazol-3-amine]: the IC50 was ≤ 5 µM. As for `Cc1ccc2c(N)n[nH]c2c1-c1ccc2c(N3CCOC[C@@H]3C)nncc2c1` [Example 391, 6-methyl-7-{1-[(3S)-3-methylmorpholin-4-yl]phthalazin-6-yl}-1H-indazol-3-amine], the figure is ≤ 5 µM; as for `Cc1ccc(C(=O)NC2CC2)cc1-c1ccc2c(N3C[C@@H](C)N[C@@H](C)C3)nncc2c1` [Example 148, N-cyclopropyl-3-{1-[(3R,5S)-3,5-dimethylpiperazin-1-yl]phthalazin-6-yl}-4-methylbenzamide], ≤ 5 µM. Take `Cc1ccc(C(N)=O)cc1-c1ccc2c(N[C@H](C)CO)nncc2c1` [Example 185, 3-(1-{[(1R)-2-hydroxy-1-methylethyl]amino}phthalazin-6-yl)-4-methylbenzamide]: the IC50 is ≤ 5 µM. Take `Cc1ccc(C(=O)NC2CC2)cc1-c1ccc2c(NCCN(C)C)nncc2c1` [Example 183, N-cyclopropyl-3-(1-{[2-(dimethylamino)ethyl]amino}phthalazin-6-yl)-4-methylbenzamide]: the IC50 was ≤ 5 µM. As for `Cc1ccc(C(N)=O)cc1-c1ccc2c(-c3ccc(F)cc3C)nncc2c1` [Example 217, 3-[1-(4-fluoro-2-methylphenyl)phthalazin-6-yl]-4-methylbenzamide], the figure is ≤ 5 µM; as for `Cc1ccc(C(N)=O)cc1-c1ccc2c(N(C)C)nncc2c1` [Example 281, 3-[1-(dimethylamino)phthalazin-6-yl]-4-methylbenzamide], ≤ 5 µM. `Cc1ccc(C(=O)NC2CC2)cc1-c1ccc2c(N3C[C@@H](C)N(CC(F)(F)F)C[C@@H]3C)nncc2c1` [Example 393, N-cyclopropyl-3-{1-[(2S,5R)-2,5-dimethyl-4-(2,2,2-trifluoroethyl)piperazin-1-yl]phthalazin-6-yl}-4-methylbenzamide]: the half-maximal inhibitory concentration (IC50) is ≤ 5 µM. Then `Cc1ccc(C(=O)NC2CC2)cc1-c1ccc2c(N3CCC(C)(O)CC3)nncc2c1` [Example 152, N-cyclopropyl-3-[1-(4-hydroxy-4-methylpiperidin-1-yl)phthalazin-6-yl]-4-methylbenzamide], with ≤ 5 µM. As for `Cc1ccc(C(N)=O)cc1-c1ccc2c(N3CCOCC3)nncc2c1` [Example 175, 4-methyl-3-(1-morpholin-4-ylphthalazin-6-yl)benzamide], the figure is ≤ 5 µM. As for `Cc1ccc(C(=O)NC2CC2)cc1-c1ccc2c(NC3CCCCC3)nncc2c1` [Example 158, 3-[1-(cyclohexylamino)phthalazin-6-yl]-N-cyclopropyl-4-methylbenzamide], the figure is ≤ 5 µM. With `Cc1ccc(C(=O)NC2CC2)cc1-c1ccc2c(N3CC[C@@H](O)C3)nncc2c1` [Example 166, N-cyclopropyl-3-{1-[(3R)-3-hydroxypyrrolidin-1-yl]phthalazin-6-yl}-4-methylbenzamide], the IC50 was ≤ 5 µM. As for `Cc1ccc(C(N)=O)cc1-c1ccc2c(NCCO)nncc2c1` [Example 407, 3-{1-[(2-hydroxyethyl)amino]phthalazin-6-yl}-4-methylbenzamide], the figure is ≤ 5 µM; as for `COCCN(C)c1nncc2cc(-c3cc(C(=O)NC4CC4)ccc3C)ccc12` [Example 188, N-cyclopropyl-3-{1-[(2-methoxyethyl)(methyl)amino]phthalazin-6-yl}-4-methylbenzamide], ≤ 5 µM. Then `Cc1ccc(C(=O)NC2CC2)cc1-c1ccc2c(N3CCCCC3)nncc2c1` [Example 159, N-cyclopropyl-4-methyl-3-(1-piperidin-1-ylphthalazin-6-yl)benzamide], with ≤ 5 µM.
